Converted amounts (≈) assume the structure as drawn.
Tests used:
Format in all cases: cell-based
[1] = test system: S. maltophilia ATCC 13637; test: Broth microdilution MIC, ATCC strains; conditions: Stenotrophomonas maltophilia, ATCC13637; S. maltophilia ATCC 13637; read-out: MIC (growth inhibition, microdilution method)
From the text: (§1) All clinical isolates tested were from The North American Urinary Tract Infection Collaborative Alliance (NAUTICA) which is a UTI surveillance study involving 40 medical centres (30 from the US and 10 from Canada). Each centre submitted up to 50 consecutive outpatient midstream urine isolates. All isolates were deemed significant urinary tract pathogens by individual laboratory criteria and identified to the species level by each laboratory's existing protocol. Isolates were transported to the coordinating laboratory (Health Sciences Centre, Winnipeg, Canada) on charcoal swabs. Only one isolate per patient was accepted. Upon receipt, isolates were cultured by the coordinating laboratory, stocked in skim milk, and stored at −80° C. awaiting reference antibiotic susceptibility testing. Elementary demographic information was also compiled for each isolate. Isolates were selected randomly from the above pool to represent 18 different species of Enterobacteriaceae and non-Enterobacteriaceae. An average of 5 strains of each species were tested for a total of 93 organisms. In addition, 23 reference (ATCC) [both gram negative and gram positive] strains were tested.
(§2) Susceptibilities to the compounds were determined using the National Committee for Clinical Laboratory Standards (NCCLS) M7-A6 broth microdilution method. […] DMSO controls were incorporated into the panel to mimic the quantity of DMSO used in dissolving some of the compounds at the higher concentrations. Each final panel well volume was 100 μl with a bacterial inoculum of 5×10^5 colony forming units (CFU)/ml. Panels were read following 16 to 20 hours of incubation at 35° C. in ambient air. The minimum inhibitory concentration (MIC) was defined as the lowest concentration of antimicrobial inhibiting visible growth. Quality control (QC) was performed using four ATCC QC organisms that were run with every batch set up to insure reproducibility.

E. cloacae ATCC 23355 = test: Broth microdilution MIC, ATCC strains; conditions: Enterobacter cloacae, ATCC23355; E. cloacae ATCC 23355; read-out: MIC (growth inhibition, microdilution method)
From the text: as §1, §2

E. aerogenes ATCC 13048 = test: Broth microdilution MIC, ATCC strains; conditions: Klebsiella aerogenes, ATCC13048; E. aerogenes ATCC 13048; read-out: MIC (growth inhibition, microdilution method)
From the text: as §1, §2

S. simulans ATCC 27848 = test: Broth microdilution MIC, ATCC strains; conditions: Staphylococcus simulans, ATCC27848, read-out: MIC (growth inhibition, microdilution method)
From the text: as §1, §2

P. mirabilis ATCC 29245 = test: Broth microdilution MIC, ATCC strains; conditions: Proteus mirabilis, ATCC29245; P. mirabilis ATCC 29245; read-out: MIC (growth inhibition, microdilution method)
From the text: as §1, §2

K. pneumoniae ATCC 13883 = test: Broth microdilution MIC, ATCC strains; conditions: Klebsiella pneumoniae, ATCC13883; K. pneumoniae ATCC 13883; read-out: MIC (growth inhibition, microdilution method)
From the text: as §1, §2

S. warneri ATCC 27836 = test: Broth microdilution MIC, ATCC strains; conditions: Staphylococcus warneri, ATCC27836; S. warneri ATCC 27836; read-out: MIC (growth inhibition, microdilution method)
From the text: as §1, §2

A. anitratus ATCC 19606 = test: Broth microdilution MIC, ATCC strains; conditions: Acinetobacter calcoaceticus, ATCC19606; A. anitratus ATCC 19606; read-out: MIC (growth inhibition, microdilution method)
From the text: as §1, §2

[2] = test system: S. saprophyticus ATCC 15305; test: Broth microdilution MIC, ATCC strains; conditions: Staphylococcus saprophyticus, ATCC15305; S. saprophyticus ATCC 15305; read-out: MIC (growth inhibition, microdilution method)
From the text: as §1, §2

[3] = test system: S. epidermidis ATCC 14990; test: Broth microdilution MIC, ATCC strains; conditions: Staphylococcus epidermidis, ATCC14990; S. epidermidis ATCC 14990; read-out: MIC (growth inhibition, microdilution method)
From the text: as §1, §2

S. aureus ATCC 29213 = test: Broth microdilution MIC, ATCC strains; conditions: for MIC: Staphylococcus aureus, ATCC29213, S. aureus ATCC 29213, read-out: MIC (growth inhibition, microdilution method)
From the text: as §1, §2

[4] = test system: E. cloacae clinical isolates; test: Broth microdilution MIC, clinical isolate strains (NAUTICA); conditions: Table 4B; each table row is one clinical isolate; unit assumed
From the text: as §1, §2

[5] = test system: P. mirabilis clinical isolates; test: as above; conditions: Table 4B; each table row is one clinical isolate; unit assumed
From the text: as §1, §2

[6] = test system: B. cepacia clinical isolates; test: as above; conditions: Table 4B; each table row is one clinical isolate; unit assumed
From the text: as §1, §2

[7] = test system: E. coli clinical isolates; test: as above; conditions: Table 4B; each table row is one clinical isolate; unit assumed
From the text: as §1, §2

[8] = test system: E. aerogenes clinical isolates; test: as above; conditions: Table 4B; each table row is one clinical isolate; unit assumed
From the text: as §1, §2

[9] = test system: C. amalonaticus clinical isolates; test: as above; conditions: Table 4B; each table row is one clinical isolate; unit assumed
From the text: as §1, §2

[10] = test system: A. baumanii clinical isolates; test: as above; conditions: Table 4B; each table row is one clinical isolate; unit assumed
From the text: as §1, §2

[11] = test system: C. freundii clinical isolates; test: as above; conditions: Table 4B; each table row is one clinical isolate; in µg/mL (unit assumed)
From the text: as §1, §2

[12] = test system: P. vulgaris clinical isolates; test: as above; conditions: Table 4B; each table row is one clinical isolate; unit assumed
From the text: as §1, §2

[13] = test system: S. liquifaciens clinical isolates; test: as above; conditions: Table 4B; each table row is one clinical isolate; unit assumed
From the text: as §1, §2

[14] = test system: S. marcescens clinical isolates; test: as above; conditions: Table 4B; each table row is one clinical isolate; unit assumed
From the text: as §1, §2

[15] = test system: K. pneumoniae clinical isolates; test: as above; conditions: Table 4B; each table row is one clinical isolate; unit assumed
From the text: as §1, §2

[16] = test system: M. morganii clinical isolates; test: as above; conditions: Table 4B; each table row is one clinical isolate; unit assumed
From the text: as §1, §2

[17] = test system: K. oxytoca clinical isolates; test: as above; conditions: Table 4B; each table row is one clinical isolate; unit assumed
From the text: as §1, §2

[18] = test system: C. koseril clinical isolates; test: as above; conditions: Table 4B; each table row is one clinical isolate; unit assumed
From the text: as §1, §2

[19] = test system: P. stuartii clinical isolates; test: as above; conditions: Table 4B; each table row is one clinical isolate; unit assumed
From the text: as §1, §2

[20] = test system: S. maltophilia clinical isolates; test: as above; conditions: Table 4B; each table row is one clinical isolate; unit assumed
From the text: as §1, §2

[21] = test system: P. retgerri clinical isolates; test: as above; conditions: Table 4B; each table row is one clinical isolate; unit assumed
From the text: as §1, §2

P. rettgeri CAP = test: Broth microdilution MIC, reference strains; conditions: Providencia rettgeri; P. rettgeri (CAP in Table 1); read-out: MIC (growth inhibition, microdilution method)
From the text: as §1, §2

SMILES	MIC [1]	MIC (E. cloacae ATCC 23355)	MIC (E. aerogenes ATCC 13048)	MIC (S. simulans ATCC 27848)	MIC (P. mirabilis ATCC 29245)	MIC (K. pneumoniae ATCC 13883)	MIC (S. warneri ATCC 27836)	MIC (A. anitratus ATCC 19606)	MIC [2]	MIC [3]	MIC (S. aureus ATCC 29213)	MIC, E. CLOACAE [4]	MIC, P. MIRABILIS [5]	MIC, B. CEPACIA [6]	MIC, E. COLI [7]	MIC, E. AEROGENES [8]	MIC, C. AMALONATICUS [9]	MIC, A. BAUMANII [10]	MIC, C. FREUNDII [11]	MIC, P. VULGARIS [12]	other results
Fc1ccc(-c2cc(-c3nnn[nH]3)c(-c3ccc(F)cc3)s2)cc1 [DNM-131, 5-(2,5-Bis(4-fluorophenyl)thiophen-3-yl)-1H-tetrazole]	> 32 µg/mL	> 32 µg/mL	> 32 µg/mL	> 32 µg/mL	> 32 µg/mL	> 32 µg/mL	> 32 µg/mL	> 32 µg/mL	> 32 µg/mL	> 32 µg/mL	32 µg/mL (≈ 94 µM)	> 32 µg/mL	> 32 µg/mL	> 32 µg/mL	> 32 µg/mL	> 32 µg/mL	> 32 µg/mL	> 32 µg/mL	>32	> 32 µg/mL	MIC (growth inhibition, microdilution method) (S. aureus ATCC 29213; S. aureus ATCC 29213): >32 µg/mL; MIC, S. LIQUEFACIENS [13]: > 32 µg/mL; MIC, S. MARCESCENS [14]: > 32 µg/mL; MIC, K. PNEUMONIAE [15]: > 32 µg/mL; MIC, M. MORGANII [16]: > 32 µg/mL; MIC, K. OXYTOCA [17]: > 32 µg/mL; MIC, C. KOSERI [18]: > 32 µg/mL; MIC, P. STUARTII [19]: > 32 µg/mL; MIC, S. MALTOPHILIA [20]: > 32 µg/mL; MIC, P. RETTGERI [21]: > 32 µg/mL; MIC (P. rettgeri CAP): > 32 µg/mL
Cn1nnc(-c2cc(-c3ccc(F)cc3)sc2-c2ccc(F)cc2)n1 [DNM-132, 5-(2,5-bis(4-fluorophenyl)thiophen-3-yl)-2-methyl-2H-tetrazole]	> 16 µg/mL	> 16 µg/mL	> 16 µg/mL	> 16 µg/mL	> 16 µg/mL	> 16 µg/mL	> 16 µg/mL	> 16 µg/mL	> 16 µg/mL	> 16 µg/mL	> 16 µg/mL	> 16 µg/mL	> 16 µg/mL	> 16 µg/mL	> 16 µg/mL	> 16 µg/mL	> 16 µg/mL	> 16 µg/mL	>16	> 16 µg/mL	MIC, S. LIQUEFACIENS [13]: > 16 µg/mL; MIC, S. MARCESCENS [14]: > 16 µg/mL; MIC, K. PNEUMONIAE [15]: > 16 µg/mL; MIC, M. MORGANII [16]: > 16 µg/mL; MIC, K. OXYTOCA [17]: > 16 µg/mL; MIC, C. KOSERI [18]: > 16 µg/mL; MIC, P. STUARTII [19]: > 16 µg/mL; MIC, S. MALTOPHILIA [20]: > 16 µg/mL; MIC, P. RETTGERI [21]: > 16 µg/mL; MIC (P. rettgeri CAP): > 16 µg/mL
Cn1nnnc1-c1cc(-c2ccc(F)cc2)sc1-c1ccc(F)cc1 [DNM-133, 5-(2,5-Bis(4-fluorophenyl)thiophen-3-yl)-1-methyl-1H-tetrazole]	> 16 µg/mL	> 16 µg/mL	> 16 µg/mL	> 16 µg/mL	> 16 µg/mL	> 16 µg/mL	> 16 µg/mL	> 16 µg/mL	> 16 µg/mL	> 16 µg/mL	> 16 µg/mL	> 16 µg/mL	> 16 µg/mL	> 16 µg/mL	> 16 µg/mL	> 16 µg/mL	> 16 µg/mL	> 16 µg/mL	>16	> 16 µg/mL	MIC, S. LIQUEFACIENS [13]: > 16 µg/mL; MIC, S. MARCESCENS [14]: > 16 µg/mL; MIC, K. PNEUMONIAE [15]: > 16 µg/mL; MIC, M. MORGANII [16]: > 16 µg/mL; MIC, K. OXYTOCA [17]: > 16 µg/mL; MIC, C. KOSERI [18]: > 16 µg/mL; MIC, P. STUARTII [19]: > 16 µg/mL; MIC, S. MALTOPHILIA [20]: > 16 µg/mL; MIC, P. RETTGERI [21]: > 16 µg/mL; MIC (P. rettgeri CAP): > 16 µg/mL

From patent US8835476B2, “Synthesis of novel antimicrobials” (priority 2005, dated 2014)
